Laboratory results taken from patent US20200337297A1, “SYSTEM AND METHOD FOR CARBON MONOXIDE […] BLOOD COMPONENTS” (SAFETIN LTD., priority 2017, published 2020).

Key:
platelets [1] = assay: ATP quantitation in stored platelets (luminometric ATP bioluminescence kit); assay type: cell-based, human
Description: PC fractions were identically prepared from CO pretreated or untreated blood by consecutive centrifugation in a sterile environment using blood bank conditions. Bicarbonate (4% of PC volume) was then added from a stock solution of 750 mM with agitation to yield a final bicarbonate concentration of 30 mM. Next, the PC was treated with CO in a similar manner to whole blood. Alternatively, rather than applying a vacuum, the containers were flushed for 10 min. with sterile CO while agitating the containers, which were then sealed. The containers were allowed to stay at room temperature of 20-24 degree C.° PRP platelets were treated similarly.
A luminometric ATP was measured by Veritas™ Microplate Luminometer (Tuner Biosystems) by using an ATP bioluminescence kit (CLS II) from Roche (cat No. 11 699 709 001) Mannheim Germany The assay was performed according to the manufacturer's instructions. Briefly: 50 μl of cell lysate (500000 cell per sample) or ATP standard concentration was added in advance to each well in 96 well LIA-white plate (Greiner bio one). Automatic injection of 50 μof substrate solution (luciferin and luciferase) was added to each well by the device and the luminescence was measured. ATP concentrations were calculated based on an ATP standard curve. Each sample was tested in triplicate.

[2] = test system: human platelets in rabbit blood circulation; assay: In vivo platelets viability analysis in a rabbit model
Description: Female New Zealand white rabbits (2.5-3 kg) were infused with Ethyl Palmytate (EP) to inhibit the Macrophages function (Blajchman M A and Lee D H, “The thrombocytopenic rabbit bleeding time model to evaluate the in vivo hemostatic efficacy of platelets and platelet substitutes”, Transfus Med Rev 1997, 11:95-105). EP solution (10 ml) was prepared by mixing (up to homogeneity) of 2.25 ml EP with 7.75 ml of 5% dextrose containing 1% Tween-20.
[…] Blood samples at time intervals were analyzed by flow cytometry with FITC labeled anti-CD42a for the presence of human platelets (Rothwell S W, Maglasang P et al., “Survival of fresh human platelets in a rabbit model as traced by flow cytometry”, Transfusion 1998, 38:550-556; Leytin V, Allen D J et al., “A rabbit model for monitoring in vivo viability of human platelet concentrates using flow cytometry”, Transfusion 2002, 42:711-718). 100% represented the total number of normalized human platelet in rabbit circulation after 30 min from the injection.

platelets [3] = assay: Analysis of phosphatidylserine (PS) exposure by FACS (AnnexinV-FITC); assay type: cell-based, human
Description: PS exposure was measured by FACS analysis of bound AnnexinV-FITC using 488 nm for excitation and 530 nm for emission. (Shapira S, Friedman Z et al., “The effect of storage on the expression of platelet membrane phosphatidylserine and the subsequent impact on the coagulant function of stored platelets”, Transfusion 2000, 40:1257-1263)

How did the “ATP level relative to the initial value of the ATP of air preserved platelets” value (platelets [1]; 5 days COatm storage, then overnight re-aeration) turn out when [C-]#[O+] [COatm, carbon monoxide] was run?
The value was 74%.

What about the “ATP level relative to the level in fresh PC” value (platelets [1]; platelets stored as PC 5 days under anaerobic COatm) of the same compound?
Its value is 28%.

What about the “time dependent survival of stored human platelets in rabbit blood circulation” value ([2]; 7 days stored, COatm vs air-stored (FIG. 5)) of the same compound?
The value was “survive longer in vivo than air-stored platelets”.

What about the “survival of stored platelets in rabbit blood circulation” value ([2]; Plt preserved for 9 days, COatm vs air (FIG. 5)) of the same compound?
Its value is “survived for longer in blood circulation”.

And the “PS exposure after transfer to air” value (platelets [3]; 9 days COatm-stored, then re-aerated (FIG. 6d))?
The value was “another fraction returned to very low PS exposure”.

And the “PS exposure, change during extended storage” value (platelets [3]; extended storage under COatm up to 9 days)?
Its value is “no further changes”.

What about the PS exposure (platelets [3]; several hours of storage under COatm (FIG. 6b)) of the same compound?
The PS exposure was “most cells are PS-exposed”.
